Source: US20150296779A1, “SUBSTITUTED DIHYDROPYRIDINES FOR SOMATIC EMBRYOGENESIS IN PLANTS” (STICHTING DIENST LANDBOUWKUNDIG ONDERZOEK, priority 2012, published 2015)

What was measured:
Assay type in all cases: in vivo, Arabidopsis thaliana
[1] = system: Arabidopsis seedlings; assay: Dose-response analysis for somatic embryo induction in containers (circa 30 seeds in 30 ml medium; FIG. 2, FIG. 4)
Description: (§1) The chemical screen was based on a modified version of an Arabidopsis somatic embryogenesis protocol that uses germinated seeds as explants (see Kobayashi et al., 2010 Kobayashi T, Nagayama Y, Higashi K and Kobayashi M. (2010). Establishment of a tissue culture system for somatic embryogenesis from germinating embryos of Arabidopsis thaliana Plant Biotech. 27: 359-364). In the original protocol, seeds were germinated on solid medium for one day, then the embryos were removed from the seed coat and transferred to solid media containing 4.5 μM 2,4-D to stimulate somatic embryo development. In this example, the protocol is simplified by germinating and culturing the seeds continuously in liquid medium containing 1 μM 2,4-D. Under optimized culture conditions (circa 30 seeds in 30 ml medium) approximately 18% of Col0 seeds form somatic embryos.
(§2) Approximately 10 surface-sterilized Columbia (Col-0) seeds were added to each well. The seeds were stratified at 4° C. in the dark for two days and then grown in on a rotary shaker (100 rpm/min) on a 16 h/8 h day/night cycle at 25° C. The number of seedlings that formed somatic embryos was counted two weeks later. […] Positive compounds were analysed using ChemMine (http://bioweb.ucr.edu/ChemMineV2/), ChemSpider (http://www.chemspider.com/) and the ZINC database (http://zinc.docking.org) for analogues with a putative biological function. […]

[2] = system: Arabidopsis seedlings; assay: Testing of compounds for somatic embryogenesis activity in the presence of 2,4-D (FIG. 1); details: in the presence of 1 μM 2,4-D
Description: as §1, with “embryos. […]” for “embryos.”
as §2, with “The seeds were stratified at 4° C. in the dark for two days and then grown in on a rotary shaker (100 rpm/min) on a 16 h/8 h day/night cycle at 25° C.” left out

[3] = system: Arabidopsis seedlings; assay: Somatic embryogenesis at increasing 2,4-D concentrations with or without 25 μM C#5 (FIG. 3)
Method: All subsequent experiments were performed under the conditions described above, but using 100 ml containers (Greiner) containing 30 ml of medium media using approximately 30 seeds/container. All hormones were ordered from Duchefa and Dicamba from Sigma-Aldrich.
2,4-D is widely used to induce somatic embryogenesis from plant explant. In Arabidopsis immature zygotic embryos occasionally form somatic embryos when grown in basal medium, while germinating embryos or other vegetative tissues are unable to form embryos.

SMILES	Col0 seeds that form somatic embryos ([1]; liquid medium containing 1 μM 2,4-D alone, circa 30 seeds in 30 ml medium)	level of SE, as measured by the percentage of seedlings with somatic embryos [2]	somatic embryo formation in the absence of 2,4-D ([3]; 25 μM C#5, 0 μM 2,4-D)	somatic embryo formation at all of the tested 2,4-D concentrations ([3]; 25 μM C#5, 2,4-D up to 2 μM, versus control (2,4-D only))	threshold concentration of 2,4-D needed to achieve enhanced SE ([3]; using 25 μM of C#5, seedlings grown in containers)	seedlings with somatic embryo development ([1]; at about 10 to about 50 μM compound, compared to circa 5% of seedlings in the control)
O=C(O)COc1ccc(Cl)cc1Cl [2,4-D, 2,4-dichlorophenoxyacetic acid, reference compound]	approximately 18%					
CC1=C(C(=O)OC2CCCC2)C(c2ccncc2)C2=C(CC(C)(C)CC2=O)N1 (stereo not drawn) [C#5, cyclopentyl 2,7,7-trimethyl-5-oxo-4-(4-pyridinyl)-1,4,5,6,7,8-hexahydro-3-quinolinecarboxylate]		high percentage	not able to induce somatic embryo formation	did enhance somatic embryo formation	about 0.4 μM	about 50%
